The text below walks through data of PMC13360702, “An Agonist/Antagonist Photo‐Switchable Vitamin D Mimetic Enables Bidirectional Optical Control of VDR” (Angewandte Chemie (International Ed. in English), 2026).

Read-outs that look alike come from different tables or passages of the source.

One data set deals with T1, VDR (Homo sapiens, UniProt P11473).
T1 construct: -CMV-VDR-LBD coding for the hinge region and; expressed in transfected cells; host or cells: HEK293T
T1 sequence (P11473 127-423 limits assumed): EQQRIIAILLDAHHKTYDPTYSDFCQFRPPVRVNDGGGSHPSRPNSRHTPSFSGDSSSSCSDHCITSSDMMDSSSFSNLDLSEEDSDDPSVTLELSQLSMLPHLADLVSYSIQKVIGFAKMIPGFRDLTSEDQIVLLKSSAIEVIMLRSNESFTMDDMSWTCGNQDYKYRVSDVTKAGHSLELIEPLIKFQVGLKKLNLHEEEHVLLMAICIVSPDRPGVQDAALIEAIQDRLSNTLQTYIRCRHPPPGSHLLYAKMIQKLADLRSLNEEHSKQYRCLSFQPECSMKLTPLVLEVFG
The experiment in a line: Gal4‐VDR hybrid reporter gene assay, agonist mode. Format: cell-based. To be noted: for EC50: HEK293T cells, mean±S.E.M., n≥3. The method, then:
FIGURE 2 Development and characterization of the light‐activated vitamin D mimetic photo‐vitD (10). (a) Structure activity relationship of photo‐switchable VDR agonists 4–10. Compounds were tested in a cellular Gal4‐VDR hybrid reporter gene assay. Relative activation is normalized to the effect of 2 (1 µM) set as 100% activation. The (Z)‐states of the compounds were maintained with a Cell‐Disco [24] (370 nm). […] Data in agonist (EC50) and antagonist mode (IC50; vs. 0.3 µM 2) are shown for (E)‐ and (Z)‐10. The corresponding dose‐response curves are shown in (d). (b) Predicted binding mode of (E)‐7 (green) in the VDR ligand binding site (pdb ID 4g1d). […] (c) Predicted binding mode of (Z)‐10 (yellow) in the VDR ligand binding site. The altered regiochemistry conveys strong preference for the light‐induced (Z)‐configuration and the extended naphthoic acid motif enables a strong ionic contact to R302. (d) Dose‐response curves of (E)‐ (dark) and (Z)‐10 (370 nm) in the Gal4‐VDR reporter gene assay in agonist (top) and antagonist mode (bottom, with 0.3 µM calcitriol (2)). (Z)‐10 activated VDR; (E)‐10 and (Z)‐10 antagonized VDR activation by 0.3 µM calcitriol (2). (Z)‐10 was maintained with a Cell‐Disco [24] (370 nm). Data are the mean±S.E.M. relative VDR act. vs. 0.3 µM calcitriol (2), n≥3. (e) Activity profile of 10 (1 µM) on nuclear receptors showing exclusive VDR activation by the light‐activated state. 10 was tested in a panel of uniform Gal4‐NR hybrid reporter gene assays. (Z)‐10 was maintained with a Cell‐Disco [24] (370 nm). Data are the mean±SD, n = 3. (f) Representative UV/Vis spectra of 10 as (E)‐ (dark) and (Z)‐states (PSS 365 nm), and after switching back to (E) with 465 nm. (g) (E)/(Z)‐ratios of 10 in the dark‐adapted state, after illumination at 365 nm for 5 min and after switching back from mostly‐(Z) with 465 nm for 5 min. (h) 10 could be rapidly and reversibly switched between the (E)‐ and (Z)‐states over multiple cycles by alternating irradiation at 365 and 465 nm. Absorbance was measured at 351 nm with a 25 µM solution in DMSO, one cycle is 30 sec. […] 10 was pre‐illuminated at 365 nm for 30 min and then kept in the dark. (E)/(Z) ratios were measured by NMR. (j) Binding mode prediction of (E)‐ and (Z)‐10 to the VDR‐antagonist complex 2zxm (residues numbered according to [21]). (Z)‐10 (yellow) forms an agonist‐like binding mode with several polar interactions at both ends of the pocket. (E)‐10 (cyan) is also anchored at the distal end of the pocket by an H‐bond network with R302 and the D176 backbone but due to the (E)‐configuration, the β‐naphthoic acid residue protrudes deeper and the pentan‐3‐ol motif rotates away from H333/H423. Therefore, (E)‐10 lacks stabilizing/activating contacts with the H333/H423 region rationalizing its antagonist properties.
Gal4-hybrid reporter gene assays. Reporter gene assays were performed in HEK293T cells (German Collection of Microorganisms and Cell Culture GmbH, DSMZ) as reported previously using Gal4 -NR LBD fusion receptor plasmids each coding for the hinge region and LBD of the canonical isoform of the respective human nuclear receptor.[7,8] pFR-Luc (Stratagene, La Jolla, CA, USA) served as a reporter plasmid and pRL-SV40 (Promega, Madison, WI, USA) was used for normalization of transfection efficiency and test compound toxicity. Cells were cultured in Dulbecco’s modified Eagle’s medium (DMEM), high glucose supplemented with 10% fetal calf serum (FCS), sodium pyruvate (1 mM), penicillin (100 U/mL), and streptomycin (100 μg/mL) at 37 °C and 5% CO2, and seeded in 96-well plates (3 × 10^4 cells/well). After 24 h, the medium was changed to Opti -MEM without supplements, and cells were transiently transfected using Lipofectamine LTX reagent (Invitrogen, Carlsbad, CA, USA) according to the manufacturer’s protocol. Five hours after transfection, cells were incubated with the test compounds […]
(In general: A reporter such as luciferase makes a cellular process visible.)

The test system of another data set is ASC52telo hTERT cells. Briefly: in vitro osteogenesis model (ALP activity, von Kossa staining). It counts as cell-based, human. As to conditions: osteogenic differentiation over 15 days, dark or Cell‐Disco (370 nm, 100 ms/10 s). The method, then: FIGURE 3 Optical control of VDR activity with photo‐vitD (10). (a) 10 (1 µM) enabled light‐dependent in‐cell activation of VDR in a fluorescent (mCherry) reporter gene assay. Gray curve: dark; blue curve: Cell‐Disco (370 nm; 100 ms/10 s); yellow curve: dark for 10 h, then Cell‐Disco (370 nm); magenta curve: Cell‐Disco (370 nm) for 10 h, then Cell‐Disco (450 nm). Lines are the mean, shadows are S.E.M.; n = 6. (b–d) Phenotypic model of bone formation using human […] (ASC52telo hTERT cells) and cyclic treatment with dexamethasone, 2‐phospho‐L‐ascorbic acid, and glycerol 2‐phosphate over 15 days to induce osteogenesis. Alkaline phosphatase (ALP) activity (b) and von Kossa staining of hydroxyapatite (c; representative photomicrographs in d) were used as markers of osteogenesis. Experiments were performed in the dark (gray bars) and using a Cell‐Disco (370 nm, 100 ms/10 s; blue bars). Data are the mean±SD, n = 6. * p<0.05, ** p<0.01, *** p<0.001 (vs. respective dark or illuminated DMSO (diff.) ctrl or as indicated; ANOVA with Dunnett's multiple comparisons test).
Photo‐vitD (10) thus appeared suitable for application as tool for VDR control in complex phenotypic settings. […] Photo‐vitD (10) thus enabled bidirectional optical control of osteogenesis in cellulo based on its ability to switch between agonist and antagonist states. […]
experiment was repeated independently three times. CellDiscos[9] were used for pulsed irradiation at 370 nm or 450 nm to switch 10 between photostationary states. The live cells were assayed for fluorescence reporter intensity at multiple time points over 36 h. Fluorescence intensity (FI) was measured (λex 585/10 nm, λem 610/10 nm) in bottom reading mode with a Tecan Spark Cyto (Tecan Deutschland GmbH).
Fold FI was obtained by dividing the mean F I of a test sample by the mean FI of the untreated control of the respective measurement (time point).
In vitro osteogenesis model. […] Absorbance was measured at 410 nm for 60 min every 5 min with an increase in absorbance reflecting phosphatase activity (nmol/min). For quantification via linear […]

Data set [1] can be described thus: photophysical characterization (photo‐switching, thermal relaxation). It counts as physicochemical. As to conditions: room temperature (∼21°C); pre‐illuminated at 365 nm for 30 min, then dark; (E)/(Z) ratios by NMR. The method, then:
FIGURE 2 Development and characterization of the light‐activated vitamin D mimetic photo‐vitD (10). (a) Structure activity relationship of photo‐switchable VDR agonists 4–10. Compounds were tested in a cellular Gal4‐VDR hybrid reporter gene assay. Relative activation is normalized to the effect of 2 (1 µM) set as 100% activation. The (Z)‐states of the compounds were maintained with a Cell‐Disco [24] (370 nm). […] Data in agonist (EC50) and antagonist mode (IC50; vs. 0.3 µM 2) are shown for (E)‐ and (Z)‐10. The corresponding dose‐response curves are shown in (d). (b) Predicted binding mode of (E)‐7 (green) in the VDR ligand binding site (pdb ID 4g1d). […] (c) Predicted binding mode of (Z)‐10 (yellow) in the VDR ligand binding site. The altered regiochemistry conveys strong preference for the light‐induced (Z)‐configuration and the extended naphthoic acid motif enables a strong ionic contact to R302. (d) Dose‐response curves of (E)‐ (dark) and (Z)‐10 (370 nm) in the Gal4‐VDR reporter gene assay in agonist (top) and antagonist mode (bottom, with 0.3 µM calcitriol (2)). (Z)‐10 activated VDR; (E)‐10 and (Z)‐10 antagonized VDR activation by 0.3 µM calcitriol (2). (Z)‐10 was maintained with a Cell‐Disco [24] (370 nm). […] Absorbance was measured at 351 nm with a 25 µM solution in DMSO, one cycle is 30 sec. […] (E)/(Z) ratios were measured by NMR. […]

[2] abbreviates: (Z)‐state maintained with Cell‐Disco (370 nm), read-out: VDR modulation light-activated (Z): EC50.
Setting [3] is: dark‐adapted (E)‐state, read-out: VDR modulation dark (E): EC50.

In general, EC50 refers to the concentration giving half of the maximal effect.

`CCCc1cc(C(O)(CC)CC)ccc1-c1ccc(/N=N/c2ccc3[nH]c(=O)[nH]c3c2)cc1C` [compound 9]: the “VDR modulation light-activated (Z): activation in words” value at VDR ((Z)‐state, Cell‐Disco (370 nm), 10 μM, inactive = no statistically significant activation at the indicated concentration) was “failed to activate VDR”. For the same molecule, the “VDR modulation dark (E): activation in words” value at VDR (dark‐adapted (E)‐state, 10 μM, inactive = no statistically significant activation at the indicated concentration) is reported as “failed to activate VDR”.

In the case of `CCCc1cc(C(O)(CC)CC)ccc1-c1ccc(/N=N/c2ccc(C(=O)O)c(O)c2)cc1C` [compound 8], the EC50 at VDR (setting [2]) is 1400 ± 200 nM; on VDR (setting [3]), greater than 10000 nM.

As for `CCCc1cc(C(O)(CC)CC)ccc1-c1ccc(/N=N/c2ccc3cc(C(=O)O)ccc3c2)cc1C` [(E)‐10], in the data set on ASC52telo hTERT cells, the “effect on osteogenesis (ALP activity, von Kossa staining positive area)” value (“effect on osteogenesis” below) was “promoted osteogenesis”.

As for `CCCc1cc(C(O)(CC)CC)ccc1-c1cc(/N=N/c2ccc(CO)c(CO)c2)ccc1C` [compound 4], the EC50 on VDR (setting [2]) turned out to be 140 ± 300 nM; at VDR (setting [3]) it was 600 ± 200 nM. Also, at VDR (VDR agonism, (E) vs (Z)), the “activity difference between the dark‐adapted (E)‐ and the light‐induced (Z)‐isomers” value was found to be 4 fold.

As for `CCC(O)(CC)c1ccc(-c2cc(/N=N/c3ccc(CO)c(CO)c3)ccc2C)c(C)c1` [compound 5], the EC50 on VDR (setting [2]) turned out to be 920 ± 60 nM; on VDR (setting [3]), 1000 ± 200 nM.

As for `CCCc1cc(C(O)(CC)CC)ccc1-c1ccc(/N=N\c2ccc3cc(C(=O)O)ccc3c2)cc1C` [(Z)‐10], in data set [1], the “thermal relaxation half‐life” value was 29 h. Also, the “effect on osteogenesis” value with ASC52telo hTERT cells is “resembled the effects of calcitriol with weaker efficacy”.

Turning to `CCCCc1cc(C(O)(CC)CC)ccc1-c1cc(/N=N/c2ccc(CO)c(CO)c2)ccc1C` [compound 6], the EC50 was 1100 ± 200 nM at VDR (setting [2]) and 1800 ± 300 nM at VDR (setting [3]).

Take `C=C1/C(=C\C=C2/CCC[C@]3(C)[C@@H]([C@H](C)CCCC(C)(C)O)CC[C@@H]23)C[C@@H](O)C[C@@H]1O` [compound 2, 1,25‐dihydroxyvitamin D, reference compound]: the “effect on osteogenesis” value in the data set on ASC52telo hTERT cells was “counteracted bone formation”.

On to `CCCc1cc(C(O)(CC)CC)ccc1-c1cc(/N=N/c2ccc(C(=O)O)c(O)c2)ccc1C` [compound 7], for which the values for the EC50 at VDR (setting [2]) and on VDR (setting [3]) were 310 ± 40 nM and 500 ± 100 nM, respectively.
